Results from patent US7018802B2, “Electrochemiluminescent enzyme immunoassay” (BioVeris Corporation, priority 1995, dated 2006).
Like-named read-outs stand apart in the source and are kept apart here.

Columns and labels:
[1] = molecular target: T1, β-lactamase I from Bacillus cereus (Bacillus cereus, UniProt P00809); assay type: biochemical; conditions: for ECL increase upon enzyme hydrolysis, second experiment: incubating time with enzyme 60 minutes, ampicillin with Ru(bpy)3^+2, FIG. 9
Method: ECL properties were compared both before and after NaOH and enzymatic hydrolysis (FIG. 7).
Following 30 minute incubations, the solutions were neutralized with 50 μL of 5 M HCl. […] Following 30 minute incubations, 50 μL of 5 M NaCl was added to these solutions.
ECL properties were compared before and after NaOH and enzymatic hydrolysis.
Following 30 minute incubations, the solutions were neutralized with 50 μL of 5 M HCl. […] Following 60 minute incubations, 50 μL of 5 M NaCl was added to these solutions.

[2] = molecular target: T1, β-lactamase I from Bacillus cereus; conditions: in words
[3] = 3.8 μM β-lactamase I, 23.0 μM, 6-APA in equimolar mixture with Ru(bpy)3^+2 (nonconjugated), FIG. 11
[4] = 347 nM β-lactamase I, 30 minutes, 30 μM, ampicillin in equimolar mixture with Ru(bpy)3^+2 (nonconjugated), FIG. 8

T1 sequence (P00809 28-306): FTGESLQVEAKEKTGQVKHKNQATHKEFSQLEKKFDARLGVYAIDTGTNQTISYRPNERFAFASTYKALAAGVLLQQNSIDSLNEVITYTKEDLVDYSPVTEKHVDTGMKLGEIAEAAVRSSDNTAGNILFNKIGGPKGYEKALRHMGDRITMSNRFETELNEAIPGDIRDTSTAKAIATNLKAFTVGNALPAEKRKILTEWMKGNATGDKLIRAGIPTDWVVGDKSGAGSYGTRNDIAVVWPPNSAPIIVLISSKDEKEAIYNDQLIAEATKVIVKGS

Molecule	ECL increase upon enzyme hydrolysis [1, 3]	ECL increase upon enzyme hydrolysis [1, 4]	ECL increase upon enzyme hydrolysis, second experiment [1]	substrate quality for β-lactamase [2]
CC1(C)S[C@@H]2[C@H](N)C(=O)N2[C@H]1C(=O)O [6-APA, 6-aminopenicillanic acid, reference compound]	1.4 fold	–	–	–
CC1(C)S[C@@H]2[C@H](NC(=O)[C@H](N)c3ccccc3)C(=O)N2[C@H]1C(=O)O [ampicillin, reference compound]	–	2.1 fold	2.5 fold	–
Ru(bpy)3^+2-labeled 6-aminopenicillanic acid [Ru-APA]	31.8 fold	–	–	very good substrate
Ru(bpy)3^+2-labeled ampicillin [Ru-AMP]	–	9.8 fold	11.1 fold	very good substrate
